Source: patent publication US10711036B2, “MALT1 inhibitors and uses thereof” (Cornell University, priority 2015, dated 2020)
Where a SMILES comes first, the peptide text is derived from it. [ ]: non-standard residue; d: D form. The star is where a group is joined. ξ: configuration not given here. Hyp = O=C(O)[C@@H]1C[C@@H](O)CN1; Ile(3ξ) = CCC(C)[C@H](N)C(=O)O; Chg = N[C@H](C(=O)O)C1CCCCC1; NMeV = CN[C@H](C(=O)O)C(C)C; Pip = O=C(O)[C@@H]1CCCCN1; Ac5c = NC1(C(=O)O)CCCC1; Cbz = O=C(OCc1ccccc1)*; CH2F = FC*

Experiments:
MALT1 = MALT1 (Homo sapiens (Human), UniProt Q9UDY8); assay: Inhibition constants (Ki) for inhibition of MALT1; format: biochemical; details: 100 nM MALT1 used for the assay
Chain of MALT1 (Q9UDY8 whole entry): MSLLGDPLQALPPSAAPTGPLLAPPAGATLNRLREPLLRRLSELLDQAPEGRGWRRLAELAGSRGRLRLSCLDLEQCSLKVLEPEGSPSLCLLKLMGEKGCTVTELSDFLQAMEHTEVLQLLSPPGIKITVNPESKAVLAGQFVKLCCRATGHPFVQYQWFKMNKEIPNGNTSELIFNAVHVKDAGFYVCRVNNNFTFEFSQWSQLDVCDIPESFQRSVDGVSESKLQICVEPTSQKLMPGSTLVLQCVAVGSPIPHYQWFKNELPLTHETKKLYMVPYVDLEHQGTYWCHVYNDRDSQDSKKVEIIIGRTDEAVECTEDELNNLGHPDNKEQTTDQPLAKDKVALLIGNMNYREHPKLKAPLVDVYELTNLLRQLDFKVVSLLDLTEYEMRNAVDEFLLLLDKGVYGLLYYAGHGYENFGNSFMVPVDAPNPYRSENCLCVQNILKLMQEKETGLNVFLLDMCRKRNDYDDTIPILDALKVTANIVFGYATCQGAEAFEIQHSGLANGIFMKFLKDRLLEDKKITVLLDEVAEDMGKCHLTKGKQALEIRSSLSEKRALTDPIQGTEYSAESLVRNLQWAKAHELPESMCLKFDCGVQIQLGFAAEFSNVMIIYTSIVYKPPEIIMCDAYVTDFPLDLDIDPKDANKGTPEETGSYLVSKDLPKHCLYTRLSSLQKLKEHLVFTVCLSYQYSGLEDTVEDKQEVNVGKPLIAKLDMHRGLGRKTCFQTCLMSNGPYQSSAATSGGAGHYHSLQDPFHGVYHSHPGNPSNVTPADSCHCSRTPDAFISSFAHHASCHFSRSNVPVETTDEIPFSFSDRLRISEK
Method: For exemplary compounds of the disclosure, Ki for inhibition of MALT1 was measured (Table E11). A concentration of 100 nM MALT1 was used for the assay.

OCI-LY3 [1] = assay: Cell growth inhibition assay (CellTiter-Glo, 96 hours), OCI-LY3; format: cell-based, human; details: OCI-LY3 cells, treated at t=0 and t=48 hours, ATP luminescence
Method: DLBCL cell lines were grown in exponential growth conditions during the 96 hours of treatment. Cells were treated twice: at t=0 and t=48 hours, and cell viability was determined by ATP quantification using a luminescent method ([…]-GLO, Promega, Madison, Wis.). Cell viability in drug-treated cells was normalized to vehicle controls (fractional viability) and results are given as 1-fractional viability.
Experiments were Performed in Triplicate.

OCI-LY3 [2] = assay: Maximum killing effect on OCI-LY3; format: cell-based, human
Method: (§1) The maximum killing effects on cell-lines OCI-LY3, TMD8, and OCI-LY1 were also measured for select compounds at inhibitor concentration of 20 μM and 5 μM. TMD8 is another line of ABC type diffuse large-B cell lymphoma, while OCI-LY1 is a DLBCL line of the germinal center B-cell subtype.

TMD8 = assay: Maximum killing effect on TMD8; format: cell-based
Method: as §1

OCI-LY1 = assay: Maximum killing effect on OCI-LY1; format: cell-based
Method: as §1

RelB cleavage = assay: Western blot for RelB cleavage in OCI-LY3 cells; format: cell-based, human; details: OCI-LY3 cells pretreated with inhibitor, then 5 μM MG-132 for 2 hours
Method: FIG. 1A. Western blots for RelB and MALT1 after 30 minutes pretreatment with indicated doses of compounds or vehicle, followed by proteasome inhibitor MG-132 (5 μM) treatment for 2 hours in OCI-LY3. clev=cleavage product of RelB.
FIG. 1B. Western blots for RelB with indicated doses of compounds or vehicle in OCI-LY3.
Western blot: OCI-Ly3 cells (a line of human diffuse large B-cell lymphoma (ABC type)) were pre-treated for 30 minutes with indicated doses of MALT1 inhibitors followed by a 2-hour treatment with proteasome inhibitor MG-132 at 5 μM. Protein was then extracted in a PBS-based lysis buffer containing 1% NP-40. Equal amounts of total protein (50 to 75 μg) were separated on sodium dodecyl sulfate-polyacrylamide gel electrophoresis (SDS-PAGE), and electrotransferred onto nitrocellulose membranes. Membranes were incubated with primary antibodies (MALT1, from Santa Cruz Biotechnologies, Santa Cruz, Calif.; RELB from Cell Signaling, Danvers, Mass., and α-Tubulin from Sigma), followed by secondary antibodies conjugated to horseradish peroxidase, which were detected by chemiluminescence (Pierce, Thermo Scientific, Rockford, Ill.).
OCI-LY3 cells were pretreated with the an inhibitor at the desired concentration and subsequently treated with 5 μM MG-132, a proteasome inhibitor, for 2 hours.

SMILES | Ki (MALT1) | GI50 (OCI-LY3 [1]; Homo sapiens) | other results
CC(C)[C@H](NC(=O)c1ccccc1Br)C(=O)N1CCC[C@H]1C(=O)N[C@@H](CCCNC(=N)N)C(=O)CF [Compound 114] | 105 nM | 4240 nM | Maximum killing effect (OCI-LY3 [2]; OCI-LY3, 20 μM): 80%; Maximum killing effect (TMD8; TMD8, 20 μM): 40%; Maximum killing effect (OCI-LY1; OCI-LY1, 20 μM): 9%
CC(C)[C@H](NC(=O)c1cccc2ccccc12)C(=O)N1CCC[C@H]1C(=O)N[C@@H](CCCNC(=N)N)C(=O)CF [Compound 153] | 102 nM | 160 nM | 
CC(C)[C@H](NC(=O)/C=C/c1ccccc1)C(=O)N1CCC[C@H]1C(=O)N[C@@H](CCCNC(=N)N)C(=O)CF [Compound 154] | 36 nM | 110 nM | 
CC(C)[C@H](NC(=O)c1ccc2ccccc2n1)C(=O)N1CCC[C@H]1C(=O)N[C@@H](CCCNC(=N)N)C(=O)CF [Compound 155] | 55 nM | 570 nM | 
CC(C)[C@H](NC(=O)c1cnc2ccccc2c1)C(=O)N1CCC[C@H]1C(=O)N[C@@H](CCCNC(=N)N)C(=O)CF [Compound 156] | 40 nM | 3880 nM | 
CC(C)[C@H](NC(=O)c1ccc2ccncc2c1)C(=O)N1CCC[C@H]1C(=O)N[C@@H](CCCNC(=N)N)C(=O)CF [Compound 158] | 110 nM | 1700 nM | 
CC(C)[C@H](NC(=O)c1ccnc2ccccc12)C(=O)N1CCC[C@H]1C(=O)N[C@@H](CCCNC(=N)N)C(=O)CF [Compound 159] | 139 nM | 4220 nM | 
CC(C)[C@H](NC(=O)c1ccc(F)cc1)C(=O)N1CCC[C@H]1C(=O)N[C@H](CCCNC(=N)N)C(=O)CF [Compound 161] | 346 nM | 910 nM | 
CC(C)[C@H](NC(=O)c1ccc(Br)cc1)C(=O)N1C[C@H](O)C[C@H]1C(=O)N[C@@H](CCCNC(=N)N)C(=O)CF [Compound 171] | 50 nM | 70 nM | 
CC(C)[C@H](NC(=O)c1ccc(Br)cc1)C(=O)N1COC[C@H]1C(=O)N[C@@H](CCCNC(=N)N)C(=O)CF [Compound 174] | 20 nM | 120 nM | 
CC(C)[C@H](NC(=O)c1ccc(Br)cc1)C(=O)N1CCOC[C@H]1C(=O)N[C@@H](CCCNC(=N)N)C(=O)CF [Compound 175] | 70 nM | 460 nM | 
CC(C)[C@H](NC(=O)c1ccc(Br)cc1)C(=O)N1CC[C@H]1C(=O)N[C@@H](CCCNC(=N)N)C(=O)CF [Compound 176] | 118 nM | 770 nM | 
Cc1cc(Br)ccc1C(=O)N[C@H](C(=O)N1CCC[C@H]1C(=O)N[C@@H](CCCNC(=N)N)C(=O)CF)C(C)C [Compound 183] | 40 nM | 850 nM | 
CC(C)C[C@H](NC(=O)OCc1ccccc1)C(=O)N1CCC[C@H]1C(=O)N[C@@H](CCCNC(=N)N)C(=O)CF [Compound 184] (Cbz-Leu-Pro-Arg-CH2F) | 93 nM | 5490 nM | 
N=C(N)NCCC[C@H](NC(=O)[C@@H]1CCCN1C(=O)[C@H](Cc1ccc(C(F)(F)F)cc1)NC(=O)c1ccc(Br)cc1)C(=O)CF [Compound 186] | 448 nM | 1370 nM | 
CC(C)C[C@H](NC(=O)OCc1ccccc1)C(=O)N(C)[C@H](C(=O)N1CCC[C@H]1C(=O)N[C@@H](CCCNC(=N)N)C(=O)CF)C(C)C [Compound 203] (Cbz-L[NMeV]PR-CH2F) |  |  | GI50 (OCI-LY3 [1]): 819 nM; Maximum killing effect (OCI-LY3 [2]; OCI-LY3, 20 μM): 79%; Maximum killing effect (TMD8; TMD8, 20 μM): 59%; Maximum killing effect (OCI-LY1; OCI-LY1, 20 μM): 3%; Inhibition of RelB cleavage (Western blot) (RelB cleavage): inhibition of RelB cleavage
CC(C)[C@H](NC(=O)OCc1ccccc1)C(=O)N[C@@H](CCCNC(=N)N)C(=O)N1CCC[C@H]1C(=O)N[C@@H](CCCNC(=N)N)C(=O)CF [Z-VRPR-fmk, reference compound] |  |  | Maximum killing effect (OCI-LY3 [2]; OCI-LY3, 5 μM): 42%; Maximum killing effect (OCI-LY3 [2]; OCI-LY3, 20 μM): 62%; Maximum killing effect (TMD8; TMD8, 5 μM): 27%; Maximum killing effect (TMD8; TMD8, 20 μM): 67%; Maximum killing effect (OCI-LY1; OCI-LY1, 5 μM): <0%; Maximum killing effect (OCI-LY1; OCI-LY1, 20 μM): <0%
CN1CCCC(CN2c3ccccc3Sc3ccccc32)C1 (stereo not drawn) [mepazine, reference compound] |  |  | Maximum killing effect (OCI-LY3 [2]; OCI-LY3, 5 μM): 35%; Maximum killing effect (OCI-LY3 [2]; OCI-LY3, 20 μM): 97%; Maximum killing effect (TMD8; TMD8, 5 μM): 32%; Maximum killing effect (TMD8; TMD8, 20 μM): 99%; Maximum killing effect (OCI-LY1; OCI-LY1, 5 μM): 6%; Maximum killing effect (OCI-LY1; OCI-LY1, 20 μM): 82%

Second part, led by results:

Ki (MALT1) | GI50 (OCI-LY3 [1]; Homo sapiens) | SMILES | other results
44 nM | 1450 nM | N=C(N)NCCC[C@H](NC(=O)[C@@H]1CCCN1C(=O)[C@@H](NC(=O)OCc1ccccc1)C1CCCCC1)C(=O)CF [Compound 102] (Cbz-[Chg]-Pro-Arg-CH2F) | Maximum killing effect (OCI-LY3 [2]; OCI-LY3, 20 μM): 85%; Maximum killing effect (TMD8; TMD8, 20 μM): 54%; Maximum killing effect (OCI-LY1; OCI-LY1, 20 μM): 19%
40 nM | 730 nM | CC(C)[C@H](NC(=O)OCc1ccccc1)C(=O)N1CCCC[C@H]1C(=O)N[C@@H](CCCNC(=N)N)C(=O)CF [Compound 107] (Cbz-Val-[Pip]-Arg-CH2F) | Maximum killing effect (OCI-LY3 [2]; OCI-LY3, 5 μM): 38%; Maximum killing effect (OCI-LY3 [2]; OCI-LY3, 20 μM): 85%; Maximum killing effect (TMD8; TMD8, 5 μM): 29%; Maximum killing effect (TMD8; TMD8, 20 μM): 58%; Maximum killing effect (OCI-LY1; OCI-LY1, 5 μM): 3%; Maximum killing effect (OCI-LY1; OCI-LY1, 20 μM): 11%; Inhibition of RelB cleavage (Western blot) (RelB cleavage): inhibition of RelB cleavage
53 nM | 290 nM | CC(C)[C@H](NC(=O)OCc1ccccc1)C(=O)N1C[C@H](O)C[C@H]1C(=O)N[C@@H](CCCNC(=N)N)C(=O)CF [Compound 109] (Cbz-Val-[Hyp]-Arg-CH2F) | Inhibition of RelB cleavage (Western blot) (RelB cleavage): inhibition of RelB cleavage
41 nM | 530 nM | CC(C)[C@H](NC(=O)c1cccc(Br)c1)C(=O)N1CCC[C@H]1C(=O)N[C@@H](CCCNC(=N)N)C(=O)CF [Compound 115] | Maximum killing effect (OCI-LY3 [2]; OCI-LY3, 20 μM): 84%; Maximum killing effect (TMD8; TMD8, 20 μM): 64%; Maximum killing effect (OCI-LY1; OCI-LY1, 20 μM): 15%
56 nM | 940 nM | CC(C)[C@H](NC(=O)C1CCCCC1)C(=O)N1CCC[C@H]1C(=O)N[C@@H](CCCNC(=N)N)C(=O)CF [Compound 120] | Maximum killing effect (OCI-LY3 [2]; OCI-LY3, 20 μM): 81%; Maximum killing effect (TMD8; TMD8, 20 μM): 52%; Maximum killing effect (OCI-LY1; OCI-LY1, 20 μM): <0%
59 nM | 630 nM | CC(C)[C@H](NC(=O)c1ccc2cnccc2c1)C(=O)N1CCC[C@H]1C(=O)N[C@@H](CCCNC(=N)N)C(=O)CF [Compound 157] | 
13 nM | 2340 nM | CC(C)[C@H](NC(=O)c1ccc(F)cc1)C(=O)N1CCC[C@H]1C(=O)N[C@@H](CCCNC(=N)N)C(=O)CF [Compound 160] | 
45 nM | 980 nM | CC(C)[C@H](NC(=O)c1ccc(C(C)(C)C)cc1)C(=O)N1CCC[C@H]1C(=O)N[C@@H](CCCNC(=N)N)C(=O)CF [Compound 162] | 
62 nM | 780 nM | CC(C)[C@H](NC(=O)Nc1ccc(Cl)cc1)C(=O)N1CCC[C@H]1C(=O)N[C@@H](CCCNC(=N)N)C(=O)CF [Compound 164] | 
27 nM | 520 nM | CC(C)[C@H](NC(=O)Nc1cccc(Cl)c1)C(=O)N1CCC[C@H]1C(=O)N[C@@H](CCCNC(=N)N)C(=O)CF [Compound 165] | 
46 nM | 240 nM | N=C(N)NCCC[C@H](NC(=O)[C@H](CO)NC(=O)[C@@H](NC(=O)c1ccc(Br)cc1)C1CCCCC1)C(=O)CF [Compound 173] | 
71 nM | 810 nM | CC(C)[C@H](NC(=O)c1ccc(Br)cc1F)C(=O)N1CCC[C@H]1C(=O)N[C@@H](CCCNC(=N)N)C(=O)CF [Compound 179] | 
30 nM | 2440 nM | CCC(C)[C@H](NC(=O)OCc1ccccc1)C(=O)N1CCC[C@H]1C(=O)N[C@@H](CCCNC(=N)N)C(=O)CF (stereo partly drawn) [Compound 180] (Cbz-[Ile(3ξ)]-Pro-Arg-CH2F) | 
1180 nM | 4310 nM | N=C(N)NCCC[C@H](NC(=O)[C@@H]1CCCN1C(=O)C1(NC(=O)OCc2ccccc2)CCCC1)C(=O)CF [Compound 181] (Cbz-[Ac5c]-Pro-Arg-CH2F) | 
76 nM | 2300 nM | N=C(N)NCCC[C@H](NC(=O)[C@@H]1CCCN1C(=O)[C@H](Cc1ccccc1)NC(=O)OCc1ccccc1)C(=O)CF [Compound 182] | 
182 nM | 1100 nM | CC(C)C[C@H](NC(=O)c1ccc(Br)cc1)C(=O)N1CCC[C@H]1C(=O)N[C@@H](CCCNC(=N)N)C(=O)CF [Compound 185] | 
